Tests used:
VCaP cells = test: Cellular growth inhibition assay for VCaP cells, CellTiter-Glo; type: cell-based, human; settings: 72 hours
How it was run: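 GI50 values come from four-parameter curve fits of luminescence data normalized to a zero baseline. Compound, in medium with 0.5% DMSO, was added one day after plating and left for 72 h before CellTiter-Glo 2.0 addition.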

[1] = system: T-Rex 293 cell line SC3 cells having increased expression of androgen receptor protein due to exposure to doxycycline; test: Cellular growth inhibition, T-Rex 293 SC3 cells with doxycycline (increased androgen receptor expression), CellTiter-Glo; type: cell-based; settings: T-Rex 293 SC3 cells with 10 ng/mL doxycycline (increased androgen receptor expression), 72 hours, CellTiter-Glo 2.0
How it was run: (§1)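 Doxycycline (10 ng/mL) was either included or omitted to toggle wild-type androgen receptor expression in SC3 cells, a T-Rex 293 clone, grown in stripped-serum, phenol red-free medium. After 72 hours with compound, viable cells were quantified by CellTiter-Glo 2.0.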

[2] = system: T-Rex 293 cell line SC3 cells lacking increased expression of androgen receptor protein; test: Cellular growth inhibition, T-Rex 293 SC3 cells without doxycycline (no increased androgen receptor expression), CellTiter-Glo; type: cell-based; settings: T-Rex 293 SC3 cells not exposed to doxycycline (no increased androgen receptor expression), 72 hours
How it was run: as §1

BRD4-BD1 = target: T1, BRD4-BD1 (Homo sapiens, UniProt O60885); test: Binding affinity to BRD4-BD1 (bromoKdELECT assay); settings: 11-point 3-fold dilution series
T1 construct: made in house; host or cells: T7 phage grown in an E. coli host derived from the BL21 strain
Description: (§2) Compounds were tested using a bromoKdELECT assay. T7 phage strains displaying bromodomains were grown in parallel in 24-well blocks in an E. coli host derived from the BL21 strain. E. coli were grown to log-phase and infected with T7 phage from a frozen stock (multiplicity of infection=0.4) and incubated with shaking at 32° C. until lysis (90-150 minutes). The lysates were centrifuged (5,000×g) and filtered ([…]) to remove cell debris. Streptavidin-coated magnetic beads were treated with biotinylated small molecule or acetylated peptide ligands for 30 minutes at room temperature to generate affinity resins for bromodomain assays. The liganded beads were blocked with excess biotin and washed with blocking buffer (SeaBlock (Pierce), 1% BSA, 0.05% Tween 20, 1 mM DTT) to remove unbound ligand and to reduce nonspecific phage binding. Binding reactions were assembled by combining bromodomains, liganded affinity beads, and test compounds in 1× binding buffer (17% SeaBlock, 0.33×PBS, 0.04% Tween 20, 0.02% BSA, 0.004% Sodium azide, 7.4 mM DTT). Test compounds were prepared as 1000× stocks in 100% DMSO. Kds were determined using an 11-point 3-fold compound dilution series with one DMSO control point. All compounds for Kd measurements are distributed by acoustic transfer (non-contact dispensing) in 100% DMSO. The compounds were then diluted directly into the assays such that the final concentration of DMSO was 0.09%. All reactions performed in polypropylene 384-well plates. Each was a final volume of 0.02 ml. The assay plates were incubated at room temperature with shaking for 1 hour and the affinity beads were washed with wash buffer (1×PBS, 0.05% Tween 20). The beads were then resuspended in elution buffer (1×PBS, 0.05% Tween 20, 2 M non-biotinylated affinity ligand) and incubated at room temperature with shaking for 30 minutes. The bromodomain concentration in the eluates was measured by qPCR.

BRD4-BD2 = target: T2, BRD4-BD2 (Homo sapiens, UniProt O60885); test: Binding affinity to BRD4-BD2 (bromoKdELECT assay); settings: 11-point 3-fold dilution series
T2 construct: made in house; host or cells: T7 phage grown in an E. coli host derived from the BL21 strain
Description: as §2, with “2 μM” for “2 M”

T47D cells = test: Cellular Growth Inhibition Assay for T47D Cells (CellTiter-Glo); type: cell-based, human; settings: Homo sapiens, 72 hours
How it was run: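 GI50 values derive from four-parameter regression of CellTiter-Glo 2.0 luminescence, using zero luminescence as baseline. Human breast cancer T47D cells (3000/well; DMEM, 10% FBS, 0.2 units/mL insulin) were exposed for 72 h to compound dilutions at 0.5% DMSO, with dosing starting 24 h after seeding.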

Structure (SMILES) | GI50 (VCaP cells; Homo sapiens) | GI50 [1] | GI50 [2] | Kd (BRD4-BD1) | Kd (BRD4-BD2) | GI50 (VCaP cells) | GI50 (T47D cells)
CCS(=O)(=O)N(C)c1ccc(Oc2cccc(OCCOC3CCN(c4ncc(C(=O)N[C@H]5C(C)(C)[C@H](Oc6ccc(C#N)c(Cl)c6)C5(C)C)cn4)CC3)c2)c(-c2cn(C)c(=O)c3[nH]ccc23)c1 [Compound I-52] | < 0.5 µM | < 0.5 µM | < 0.5 µM | > 2.5 µM | 0.5 to 2.5 µM |  | 
CCS(=O)(=O)Cc1ccc(Oc2cccc(CCCN3CCN(c4ncc(C(=O)N[C@H]5C(C)(C)[C@H](Oc6ccc(C#N)c(Cl)c6)C5(C)C)cn4)CC3)c2)c(-c2cn(C)c(=O)c3[nH]ccc23)c1 [Compound I-133] |  | < 0.5 µM | < 0.5 µM | 0.05 to 0.5 µM | < 0.05 µM | < 0.5 µM | 
CCS(=O)(=O)c1ccc(OC(COCCOC2CCN(c3ncc(C(=O)NC4C(C)(C)C(Oc5ccc(C#N)c(Cl)c5)C4(C)C)cn3)CC2)C2CC2)c(-c2cn(C)c(=O)c3[nH]ccc23)c1 (centres unmarked) [Compound I-186, N-[3-(3-chloro-4-cyano-phenoxy)-2,2,4,4-tetramethyl-cyclobutyl]-2-[4-[2-[2-cyclopropyl-2-[4-ethylsulfonyl-2-(6-methyl-7-oxo-1H-pyrrolo[2,3-c]pyridin-4-yl)phenoxy]ethoxy]ethoxy]-1-piperidyl]pyrimidine-5-carboxamide] | < 0.5 µM | < 0.5 µM | < 0.5 µM | 0.05 to 0.5 µM | 0.05 to 0.5 µM |  | 
CCS(=O)(=O)Nc1ccc(Oc2cccc(OCCCN3CCN(CCCOC4CCN(c5ncc(C(=O)N[C@H]6C(C)(C)[C@H](Oc7ccc(C#N)c(Cl)c7)C6(C)C)cn5)CC4)CC3)c2)c(-c2cn(C)c(=O)c3[nH]ccc23)c1 [Compound I-10] | < 0.5 µM | < 0.5 µM | < 0.5 µM | 0.05 to 0.5 µM | < 0.05 µM |  | 
Cn1cc(-c2cc(NS(=O)(=O)CC(F)(F)F)ccc2Oc2cccc(OCCOC3CCN(c4ncc(C(=O)N[C@H]5C(C)(C)[C@H](Oc6ccc(C#N)c(Cl)c6)C5(C)C)cn4)CC3)c2F)c2cc[nH]c2c1=O [Compound I-153] | < 0.5 µM | < 0.5 µM | < 0.5 µM | 0.5 to 2.5 µM | < 0.05 µM |  | 
CCS(=O)(=O)Nc1ccc(OC(COCCOC2CCN(c3ncc(C(=O)N[C@H]4C(C)(C)[C@H](Oc5ccc(C#N)c(Cl)c5)C4(C)C)cn3)CC2)C2CC2)c(-c2cn(C)c(=O)c3[nH]ccc23)c1 (some centres unmarked) [Compound I-67] | < 0.5 µM | < 0.5 µM | < 0.5 µM | 0.05 to 0.5 µM | 0.05 to 0.5 µM |  | 
CCS(=O)(=O)Nc1ccc(OCC(OCCOC2CCN(c3ncc(C(=O)N[C@H]4C(C)(C)[C@H](Oc5ccc(C#N)c(Cl)c5)C4(C)C)cn3)CC2)C2CC2)c(-c2cn(C)c(=O)c3[nH]ccc23)c1 (some centres unmarked) [Compound I-68, N-((1r, 3r)-3-(3-chloro-4-cyanophenoxy)-2,2,4,4-tetramethylcyclobutyl)-2-(4-(2-(1-cyclopropyl-2-(4-(ethylsulfonamido)-2-(6-methyl-7-oxo-6,7-dihydro-1H-pyrrolo[2,3-c]pyridin-4-yl)phenoxy)ethoxy)ethoxy)piperidin-1-yl)pyrimidine-5-carboxamide] | < 0.5 µM | < 0.5 µM | > 3 µM | 0.05 to 0.5 µM | 0.05 to 0.5 µM |  | 
Cn1cc(-c2cc(NS(=O)(=O)C3CC3)ccc2Oc2cccc(OCCOC3CCN(c4ncc(C(=O)N[C@H]5C(C)(C)[C@H](Oc6ccc(C#N)c(Cl)c6)C5(C)C)cn4)CC3)c2)c2cc[nH]c2c1=O [Compound I-48, N-((1r, 3r)-3-(3-chloro-4-cyanophenoxy)-2,2,4,4-tetramethylcyclobutyl)-2-(4-(2-(3-(4-(cyclopropanesulfonamido)-2-(6-methyl-7-oxo-6,7-dihydro-1H-pyrrolo[2,3-c]pyridin-4-yl)phenoxy)phenoxy)ethoxy)piperidin-1-yl)pyrimidine-5-carboxamide] | < 0.5 µM | < 0.5 µM | > 3 µM | > 2.5 µM | 0.5 to 2.5 µM |  | 
CCS(=O)(=O)Nc1ccc(Oc2cccc(OCCCN3CCN(CCCN(C)c4ncc(C(=O)N[C@H]5C(C)(C)[C@H](Oc6ccc(C#N)c(Cl)c6)C5(C)C)cn4)CC3)c2)c(-c2cn(C)c(=O)c3[nH]ccc23)c1 [Compound I-5] |  | < 0.5 µM | 0.5 to 1.5 µM | 0.05 to 0.5 µM | < 0.05 µM |  | 
CCS(=O)(=O)Cc1ccc(Oc2cccc(OCCN3CCN(c4ncc(C(=O)N[C@H]5C(C)(C)[C@H](Oc6ccc(C#N)c(Cl)c6)C5(C)C)cn4)CC3)c2)c(-c2cn(C)c(=O)c3[nH]ccc23)c1 [Compound I-106] |  | < 0.5 µM | < 0.5 µM | 0.05 to 0.5 µM | < 0.05 µM | < 0.5 µM | 
CCS(=O)(=O)Cc1ccc(Oc2cccc(OCCC3CCN(c4ncc(C(=O)N[C@H]5C(C)(C)[C@H](Oc6ccc(C#N)c(Cl)c6)C5(C)C)cn4)CC3)c2)c(-c2cn(C)c(=O)c3[nH]ccc23)c1 [Compound I-109] |  | < 0.5 µM | < 0.5 µM | > 2.5 µM | 0.5 to 2.5 µM | < 0.5 µM | 
CN(c1ccc(Oc2cccc(OCCN3CCN(c4ncc(C(=O)N[C@H]5C(C)(C)[C@H](Oc6ccc(C#N)c(Cl)c6)C5(C)C)cn4)CC3)c2)c(-c2cn(C)c(=O)c3[nH]ccc23)c1)S(=O)(=O)C1CC1 [Compound I-95] | < 0.5 µM | < 0.5 µM | < 0.5 µM | 0.5 to 2.5 µM | 0.05 to 0.5 µM |  | 
Cn1cc(-c2cc(S(C)(=O)=O)ccc2Oc2cccc(CCCC3CCN(c4ncc(C(=O)NC5C(C)(C)C(Oc6ccc(C#N)c(Cl)c6)C5(C)C)cn4)CC3)c2)c2cc[nH]c2c1=O (centres unmarked) [Compound I-249, N-[3-(3-chloro-4-cyano-phenoxy)-2,2,4,4-tetramethyl-cyclobutyl]-2-[4-[3-[3-[2-(6-methyl-7-oxo-1H-pyrrolo[2,3-c]pyridin-4-yl)-4-methyl-sulfonyl-phenoxy]phenyl]propyl]-1-piperidyl]pyrimidine-5-carboxamide] | 0.5 to 1.5 µM | < 0.5 µM | > 3 µM |  |  |  | 0.5 to 1.5 µM
CCS(=O)(=O)c1ccc(Oc2ccc(CC3CCN(c4ncc(C(=O)N[C@H]5C(C)(C)[C@H](Oc6ccc(C#N)c(Cl)c6)C5(C)C)cn4)CC3)c(F)c2)c(-c2cn(C)c(=O)c3[nH]ccc23)c1 [Compound I-278] | < 0.5 µM | < 0.5 µM | > 3 µM |  |  |  | < 0.5 µM
Cn1cc(-c2cc(C(C)(C)O)ccc2Oc2ccc(N3CC(CC4CCN(c5ccc(C(=O)N[C@H]6C(C)(C)[C@H](Oc7ccc(C#N)c(Cl)c7)C6(C)C)nc5)CC4)C3)cc2)c2cc[nH]c2c1=O [Compound I-338] | > 3 µM | > 3 µM | > 3 µM |  |  |  | 0.5 to 1.5 µM

— US20250388605A1, “HETEROBIFUNCTIONAL COMPOUNDS AND METHODS OF TREATING DISEASE” (Halda Therapeutics OpCo, Inc., priority 2022, published 2025)
